The target of this assay is T1, Human IDO (Homo sapiens, UniProt P14902).
T1 construct: High control is Hela cells with IFNγ treatment; endogenous in cells; host or cells: HeLa cells treated with 25 ng/ml IFNγ
T1 sequence (P14902 whole entry): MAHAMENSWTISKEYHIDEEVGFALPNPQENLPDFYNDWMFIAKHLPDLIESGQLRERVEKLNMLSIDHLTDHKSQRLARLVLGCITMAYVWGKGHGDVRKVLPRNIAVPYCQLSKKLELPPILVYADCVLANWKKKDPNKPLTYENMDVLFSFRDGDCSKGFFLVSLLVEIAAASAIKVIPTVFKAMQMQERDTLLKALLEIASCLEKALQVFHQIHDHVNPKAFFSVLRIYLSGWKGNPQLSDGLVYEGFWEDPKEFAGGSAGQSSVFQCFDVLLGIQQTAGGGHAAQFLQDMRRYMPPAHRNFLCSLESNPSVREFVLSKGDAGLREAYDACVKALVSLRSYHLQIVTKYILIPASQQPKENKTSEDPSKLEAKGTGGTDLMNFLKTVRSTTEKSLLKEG
Description: HeLa cell IDO assay (IFNγ-treated cells, N-formylkynurenine by RapidFire/MS/MS). The assay is classed as cell-based. Particulars: 25 ng/ml IFNγ, 200 μM Trp, 48 hours, class symbol.
By IC50 is commonly meant the concentration that inhibits the measured activity by half. Read a high IC50 as a need for much substance. Consider `O=C(Nc1ccc(Cl)cc1)C1CC12CCC(c1ccnc3ccc(F)cc13)CC2` (stereo not drawn) [Compound 1-9, N-(4-chlorophenyl)-6-(6-fluoroquinolin-4-yl)spiro[2.5]octane-1-carboxamide], for which the IC50 was below 0.1 µM. In the case of `O=C(NC1(C2CCC(c3ccnc4ccc(F)cc34)CC2)CC1)c1ccc(Cl)cc1` (stereo not drawn) [Compound 23-5A, 4-chloro-N-(1-(4-(6-fluoroquinolin-4-yl)cyclohexyl)cyclopropyl)-benzamide] it was below 0.1 µM.

`O=C(NC1CC2(CCC(c3ccnc4ccc(F)cc34)CC2)C1)c1ccc(Cl)cc1` (single isomer, unassigned) [Compound 17-6, 4-chloro-N-(7-(6-fluoroquinolin-4-yl)spiro[3.5]nonan-2-yl)benzamide] displayed a concentration for half-maximal inhibition (IC50) below 0.1 µM. Then `COc1cc2nccc([C@H]3CC[C@@]4(CC3)C[C@@H]4C(=O)Nc3ccc(Cl)cc3)c2cc1OC` [Compound 8-4C], with below 0.1 µM; and `O=C(Nc1ccc(Cl)cc1)C1CC12CCC(c1ccnc3ccncc13)CC2` (single isomer, unassigned) [Compound 7-7, N-(4-chlorophenyl)-6-(1,6-naphthyridin-4-yl)spiro[2.5]octane-1-carboxamide], with above 1 µM; and `O=C(Nc1ccc(Cl)nc1)[C@H]1C[C@]12CC[C@H](c1ccnc3ccc(F)cc31)CC2` [Compound 1-23], with below 0.1 µM. In the case of `O=C(Nc1ccc(Cl)cc1)C1(C2CCN(c3ccnc4ccc(F)cc34)CC2)CC1` [Compound 26-8, N-(4-chlorophenyl)-1-[1-(6-fluoroquinolin-4-yl)piperidin-4-yl]cyclopropane-1-carboxamide] it was below 0.1 µM; in that of `O=C(Nc1ccccc1Cl)[C@H]1C[C@]12CC[C@H](c1ccnc3ccc(F)cc31)CC2` [Compound 2-2], above 1 µM; in that of `O=C(NCc1ccc(Cl)cc1)[C@H]1C[C@]12CC[C@H](c1ccnc3ccc(F)cc31)CC2` [Compound 1-21], above 1 µM. In the case of `O=C(Nc1ccc(Cl)cc1)C1CC2(CCC(c3ccnc4ccncc34)CC2)C1` (single isomer, unassigned) [Compound 20-8, N-(4-chlorophenyl)-7-(1,6-naphthyridin-4-yl)spiro[3.5]nonane-2-carboxamide] it was below 0.1 µM. Regarding `O=C(Nc1ccc(Cl)cc1)C1([C@H]2CC[C@@H](c3ccnc4ccc(F)cc43)CC2)CC1` [Compound 24-5A, N-(4-chlorophenyl)-1-(4-(6-fluoroquinolin-4-yl)cyclohexyl)cyclopropyl-1-carboxamide], the IC50 was below 0.1 µM. In the case of `O=C(Nc1ccc(Cl)cc1)C1([C@H]2CC[C@H](c3ccnc4ccc(F)cc43)CC2)CC1` [Compound 24-5B, N-(4-chlorophenyl)-1-(4-(6-fluoroquinolin-4-yl)cyclohexyl)cyclopropyl-1-carboxamide] it was below 0.1 µM; in that of `O=C(Nc1ccc(Cl)cc1)C1(C2CCC(c3ccnc4ccncc34)CC2)CC1` (stereo not drawn) [Compound 28-5, 1-(4-(1,6-naphthyridin-4-yl)cyclohexyl)-N-(4-chlorophenyl)cyclopropane-1-carboxamide], below 0.1 µM; in that of `O=C(Nc1ccc(Cl)cc1)C1CC12CCN(c1ccnc3ccc(F)cc13)CC2` (single isomer, unassigned) [Compound 12-7, N-(4-chlorophenyl)-6-(6-fluoroquinolin-4-yl)-6-azaspiro[2.5]octane-1-carboxamide], above 1 µM. Then `O=C(Nc1ccc(Cl)c(F)c1)[C@H]1C[C@]12CC[C@H](c1ccnc3ccc(F)cc31)CC2` [Compound 1-19], with below 0.1 µM; and `O=C(Nc1ccc(I)cc1F)[C@H]1C[C@]12CC[C@H](c1ccnc3ccc(F)cc31)CC2` (single isomer, unassigned) [Compound 4-9], with below 0.1 µM. In the case of `O=C(Nc1ccc(Cl)cc1)C1CC12CCC(c1ccnc3ccncc13)CC2` (racemic) [Compound 6-9, N-(4-chlorophenyl)-6-(1,6-naphthyridin-4-yl)spiro[2.5]octane-1-carboxamide] it was below 0.1 µM; in that of `O=C(N[C@H]1CC2(CC[C@H](c3ccnc4ccc(F)cc43)CC2)C1)c1ccncc1` (stereo partly drawn) [Compound 17-9], 0.1 to 1 µM. The molecule `O=C(Nc1ccc(Cl)cc1)C1CC12CCN(c1ccnc3ccc(F)cc13)CC2` (single isomer, unassigned) [Compound 12-6, N-(4-chlorophenyl)-6-(6-fluoroquinolin-4-yl)-6-azaspiro[2.5]octane-1-carboxamide] displayed an IC50 below 0.1 µM. In the case of `O=C(Nc1ccc(Cl)cc1)[C@H]1C[C@]12CC[C@H](c1ccnc3ccc(Cl)cc31)CC2` [Compound 8-4A] it was below 0.1 µM; in that of `O=C(Nc1ccc(Cl)cc1)C1CC12CCC(c1ccnc3ccc(F)cc13)CC2` (single isomer, unassigned) [Compound 1-11, N-(4-chlorophenyl)-6-(6-fluoroquinolin-4-yl)spiro[2.5]octane-1-carboxamide], above 1 µM. Then `O=C(Nc1ccc(Cl)cc1)C1CC2(CCN(c3ccnc4ccc(F)cc34)CC2)C1` [Compound 19-3, N-(4-chlorophenyl)-7-(6-fluoroquinolin-4-yl)-7-azaspiro[3.5]nonane-2-carboxamide], with 0.1 to 1 µM; and `O=C(Nc1ccc(Cl)cc1)C1CC12CCC(c1ccnc3ccc(F)cc13)CC2` (stereo not drawn) [Compound 5-4, N-(4-chlorophenyl)-6-(6-fluoroquinolin-4-yl)spiro[2.5]octane-1-carboxamide], with 0.1 to 1 µM; and `O=C(Nc1ccc(C(F)(F)F)cn1)[C@H]1C[C@]12CC[C@H](c1ccnc3ccc(F)cc31)CC2` (stereo in doubt) [Compound 3-2, 6-(6-fluoroquinolin-4-yl)-N-(5-(trifluoromethyl)pyridin-2-yl)spiro[2.5]octane-1-carboxamide], with above 1 µM. As to `O=C(Nc1ccc(C2CC2)cc1)[C@H]1C[C@]12CC[C@H](c1ccnc3ccc(F)cc31)CC2` [Compound 1-13], the concentration for half-maximal inhibition (IC50) fell in the range of 0.1 to 1 µM. Then `COc1ccc2nccc([C@H]3CC[C@@]4(CC3)C[C@@H]4C(=O)Nc3ccc(Cl)cc3)c2c1` [Compound 8-4D], with 0.1 to 1 µM; and `N#Cc1ccc(C(=O)N[C@H]2CC3(CC[C@H](c4ccnc5ccc(F)cc54)CC3)C2)cc1` (stereo partly drawn) [Compound 17-8], with below 0.1 µM.

In turn, `O=C(Nc1ccc(Cl)cc1)C1(C2CCC(c3ccnc4ccncc34)CC2)CC1` (mixture of isomers) [Compound 29-6, 1-(4-(1,6-naphthyridin-4-yl)cyclohexyl)-N-(4-chlorophenyl) cyclopropane-1-carboxamide] came in with an IC50 below 0.1 µM. In turn, `O=C(Nc1ccc(Cl)cc1)C1CC12CCC(c1ccnc3ccncc13)CC2` (single isomer, unassigned) [Compound 7-6, N-(4-chlorophenyl)-6-(1,6-naphthyridin-4-yl)spiro[2.5]octane-1-carboxamide] gave a half-maximal inhibitory concentration (IC50) below 0.1 µM. `COc1cc2nccc([C@H]3CC[C@@]4(CC3)C[C@@H]4C(=O)Nc3ccc(Cl)cc3)c2cn1` [Compound 8-4F] had a half-inhibitory concentration (IC50) below 0.1 µM. Consider `O=C(Nc1ccc(Br)cc1)[C@H]1C[C@]12CC[C@H](c1ccnc3ccc(F)cc31)CC2` (single isomer, unassigned) [Compound 4-4], for which the half-maximal inhibitory concentration (IC50) was below 0.1 µM. Turning to `O=C(Nc1ccc(C(F)(F)F)cc1)[C@H]1C[C@]12CC[C@H](c1ccnc3ccc(F)cc31)CC2` [Compound 2-4], the concentration for half-maximal inhibition (IC50) fell in the range of 0.1 to 1 µM.

For the molecule `N#Cc1ccc(NC(=O)C2CC23CCC(c2ccnc4ccc(F)cc24)CC3)cc1` (stereo not drawn) [Compound 2-1, N-(4-cyanophenyl)-6-(6-fluoroquinolin-4-yl)spiro[2.5]octane-1-carboxamide], the IC50 is below 0.1 µM. In the case of `O=C(N[C@H]1CC2(CC[C@H](c3ccnc4ccncc43)CC2)C1)c1ccc(Cl)cc1` (single isomer, unassigned) [Compound 21-4] it was below 0.1 µM; in that of `COc1ccc2ncnc([C@H]3CC[C@@]4(CC3)C[C@@H]4C(=O)Nc3ccc(Cl)cc3)c2c1` [Compound 8-4E], 0.1 to 1 µM; in that of `O=C(Nc1ccc(Cl)cc1)C1CC12CCC(c1ccnc3ccc(F)cc13)CC2` (single isomer, unassigned) [Compound 1-10, N-(4-chlorophenyl)-6-(6-fluoroquinolin-4-yl)spiro[2.5]octane-1-carboxamide], below 0.1 µM.

These data come from patent US11180497B2 (ANGEX PHARMACEUTICAL, INC., priority 2017, dated 2021).
